Here are results for four compounds from publication PMC6418785, “Presenting Precision Glycomacromolecules on Gold Nanoparticles for Increased Lectin Binding” (Polymers, 2017).

The target of assay [1] is T1, Concanavalin A (Con A) (Canavalia ensiformis, UniProt P02866).
T1 construct: purchased LKT Laboratories (Biomol, Hamburg, Germany)
In words: SPR inhibition competition assay, Con A binding to mannosylated sensor chip. The conditions noted are these: for IC50: 100 nM Con A, LBB; for RIP per Carbohydrate Ligand: corrected for carbohydrate number per nanoparticle; for RIP per Glycomacromolecular Ligand: corrected for glycomacromolecule number per nanoparticle; for RIP: relative inhibitory potency based on IC50 of αMeMan on same chip (IP ≡ 1). The protocol:
As sensor chip a SA (streptavidin) chip from GE Healthcare Life Sciences was used. The positive (α-D-Mannose-PAA-biotin, flow cell 2) and negative (α-D-Galactose-PAA-biotin, flow cell 1) control for Con A binding were immobilized on the sensor chip surface using the standard biotin streptavidin capture method as adapted from previously established protocols. Therefore, a 4.2 µg/mL solution of both polymers was prepared in HBS-P+ buffer (pH 7.4, GE Healthcare, Uppsala, Sweden). The same buffer was used as running buffer in a flow rate of 10 µL/min. For immobilization, the immobilization wizard was used with a specified contact time of 420 s. Sodium chloride, sodium hydroxide and isopropanol solutions were prepared as specified by the manufacturer. […] After approximately 500 measurement cycles, a new SA (streptavidin) chip was used for further measurements. For immobilization, the same procedure was used as described above.
SPR inhibition competition studies were performed using the wizard template kinetics/affinity with contact times of 105 s and dissociation times of 180 s. Before the run, the system was primed with LBB (pH 7.40 ± 0.01, 10 mM Hepes, 50 mM NaCl, 1 mM CaCl2, 1 mM MnCl2) which was used as running buffer and two startup cycles were performed. The experiment was performed in multi cycle mode. For all experiments a 1 mg/mL stock solution of Con A was prepared in LBB and was shaken for 1 h. Then it was filtrated (Acrodisc® 32 mm syringe filter with a 0.1 µm Supor® membrane from Pall Corporation, Newquay, UK) and the concentration was determined spectrophotometrically. The stock solution was diluted to give a 200 nM solution of Con A. Glyco-AuNP solutions were concentrated by centrifugation (Allegra^TM 25R Centrifuge, Beckman Coulter, Brea, CA, USA, 12 h, 4500 rcf) and were resuspended in LBB to give a 20 nM stock solution. The concentration was verified by UV measurement. This glyco-AuNP stock solution was then used to prepare the dilution series in LBB. […] For N-ethylmaleimide capped glycomacromolecule 1a a dilution series with concentrations of 0, 1, 10, 20, 50, 100, 200, 500, 1000 µM and 3a a dilution series with concentrations of 0, 2, 20, 100, 200, 500, 1000, 1500, 2000 nM was prepared. For αMeMan a dilution series with concentrations of 0, 10, 100, 500, 1000, 1500, 2000, 5000 µM was prepared. As negative control, four representative concentrations of 0, 10, 1500 and 5000 µM were prepared for D-(+)-galactose.
For the experiment Con A and sample solutions were mixed in a 1:1 ratio to give half of the prepared concentrations. Each mixture was injected over both flow cells whereas the binding signal on flow cell 1 was subtracted from the response on flow cell 2. As regeneration procedure three consecutive injections of a 0.8 M solution of αMeMan in LBB with a contact time of 30 s was used. The relative response value at the beginning of the dissociation phase (20 s after the end of sample injection) for the 100 nM Con A solution with zero sample concentration was set to 100% binding. The relative response values of the Con A solutions incubated with the respective sample in serial dilutions were referred to Con A and calculated for relative binding in %. IC50 values were calculated as concentration of the sample that result in 50% inhibition of Con A binding to the mannosylated sensor chip surface. RIP (relative inhibitory potency) values are based on the IC50 value for αMeMan (IP (inhibitory potency) ≡ 1). All glyco-AuNPs, glycomacromolecules and αMeMan have been tested in three independent experiments (triplicate determination per experiment for αMeMan and glyco-AuNPs, dublicate determination per experiment for glycomacromolecules 1a and 3a).

In assay [2] the target is T1, Concanavalin A (Con A). In words: Kinetic study of aggregation behavior with Con A by DLS and UV-Vis spectroscopy. The format is binding. The conditions noted are these: αMeMan 60 mM added to wells or DLS cuvettes.
Experimental: For the kinetic study of aggregation behavior with Con A performed by DLS and UV-Vis spectroscopy, a similar procedure as described by the group of Gibson was performed [41, 42].
For the kinetic studies using absorbance spectroscopy (Thermo Scientific, Vantaa, Finland), the stock solutions were mixed in wells of a 96-well microtiter-plate (100 µL of each solution per well). The absorbance at 400 and 700 nm was measured every minute for 30 min.
For the kinetic studies using DLS, the stock solutions were filtrated twice (Roth, Rotilabo® syringe filter, Karlsruhe, Germany, PTFE, 5.0 µm) and were pre-tempered to 20 °C. Then 750 µL of each stock solution were filled into the culture tubes and mixed. DLS measurements were performed at 20 °C and at a scattering angle of 90°. Every minute an intensity-time autocorrelation function was recorded with an acquisition time of 30 s during a period of 30 min.
[3] abbreviates: SA sensor chip used for 1a and 3a (footnote 1).

On to `OC[C@H]1OC(O)[C@H](O)[C@@H](O)[C@H]1O` (stereo partly drawn) [D-(+)-galactose], for which the “inhibition of Con A binding” value on Concanavalin A (Con A) [1] (negative control, four representative concentrations) was “no inhibition”.

In the case of `CO[C@H]1O[C@H](CO)[C@@H](O)[C@H](O)[C@@H]1O` [αMeMan, methyl-α-D-mannopyranoside], the IC50 at Concanavalin A (Con A) [1] (setting [3]) came to 325 µM. This compound also yielded a 50% inhibitory concentration (IC50) on Concanavalin A (Con A) [1] (SA sensor chip with αMeMan IC50 (5.17 ± 0.84) × 10^5 nM) of 517 µM. On Concanavalin A (Con A) [1], the “RIP per Carbohydrate Ligand” value was determined as 1, the “RIP per Glycomacromolecular Ligand” value is reported as 1 and the RIP came to 1. In addition, on Concanavalin A (Con A) [2], the “redispersion of Con A induced glyco-AuNP aggregates” value was “redispersion of the aggregates”.

“Man(2)-5-Gly(1)-EDS(3,4)-Cys(5)-N-ethylmaleimide [glycomacromolecule 1a]” returned a concentration for half-maximal inhibition (IC50) on Concanavalin A (Con A) [1] (setting [3]) of 70 µM. Also, on Concanavalin A (Con A) [1], the “RIP per Carbohydrate Ligand” value is recorded as 5, the “RIP per Glycomacromolecular Ligand” value amounted to 5 and the RIP was 5.

Regarding “Man(2,4,6,8,10)-11-Gly(1)-EDS(3,5,7,9)-Cys(11)-N-ethylmaleimide [glycomacromolecule 3a]”, on Concanavalin A (Con A) [1], the “RIP per Carbohydrate Ligand” value is recorded as 419, the “RIP per Glycomacromolecular Ligand” value stood at 2096 and the RIP was found to be 2096.

In general, IC50 refers to the point on the concentration scale where inhibition reaches its midpoint. Low values mean inhibition by little substance, high ones a need for much substance.
